From ChEMBL document CHEMBL3045653, “A novel amino acid substitution Ala-122-Tyr in ALS confers high-level and broad resistance across ALS-inhibiting herbicides” (Pest Manag Sci, 2012)

Target: T1, Acetolactate synthase (Raphanus raphanistrum, UniProt J7HAW4)
T1 sequence (J7HAW4 whole entry): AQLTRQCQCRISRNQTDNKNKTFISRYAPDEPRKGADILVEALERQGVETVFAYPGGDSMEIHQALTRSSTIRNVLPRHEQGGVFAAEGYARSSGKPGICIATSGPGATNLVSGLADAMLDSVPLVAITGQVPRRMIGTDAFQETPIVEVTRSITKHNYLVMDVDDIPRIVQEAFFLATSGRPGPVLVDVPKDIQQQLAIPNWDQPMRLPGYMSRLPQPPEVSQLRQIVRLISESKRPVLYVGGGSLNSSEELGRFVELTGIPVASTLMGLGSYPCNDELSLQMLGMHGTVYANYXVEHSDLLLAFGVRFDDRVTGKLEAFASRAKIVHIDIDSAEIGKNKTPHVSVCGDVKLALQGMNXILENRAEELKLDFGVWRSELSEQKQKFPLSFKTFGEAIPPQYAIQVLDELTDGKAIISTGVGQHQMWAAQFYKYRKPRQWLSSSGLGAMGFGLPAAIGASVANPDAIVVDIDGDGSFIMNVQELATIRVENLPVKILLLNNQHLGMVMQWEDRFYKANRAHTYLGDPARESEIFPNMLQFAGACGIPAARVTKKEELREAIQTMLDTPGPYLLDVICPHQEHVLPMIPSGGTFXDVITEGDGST
Assay: Inhibition of ALS in ALS-herbicide-susceptible Raphanus raphanistrum […] (wild radish)
Settings: pooled result: one value given for 2 cell lines, strains, targets or settings; read-out: I50

## Cc1cc(C)nc(NC(=O)NS(=O)(=O)c2ccccc2C(=O)O)n1 [SULFOMETURON]
  IC50: 23 nM
